Measurements published in patent publication US7491794B2, “Macrocyclic compounds as inhibitors of viral replication” (Intermune, Inc., priority 2003, dated 2009).
Like-named read-outs stand apart in the source and are kept apart here.

How the values were obtained:
[1] = test system: HCV sub-genomic replicon, GS4.3; test: Quantitation by ELISA of NPTII in the HCV sub-genomic replicon, GS4.3, Section B; format: cell-based; details: Hepatitis C virus; GS4.3 cells, 72 h incubation; read-out: Replicon EC50
In short: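 GS4.3 cells (HuH-7 carrying HCV 1377/NS3-3′ replicon) were treated 72 h at 37 °C with inhibitors in 3-fold dilutions, 1% DMSO, no G418. Lysate NPTII was measured by ELISA (TMB, 450 nm). Signal as % of DMSO control; EC50 from 4-parameter fit.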

NS3-NS4A protease = target: T1, NS3-NS4A protease (Hepatitis C virus genotype 1a, UniProt P27958); test: NS3-NS4A protease assay (NS3 inhibition assay, RETS1 substrate), Section B; format: biochemical
T1 construct: Recombinant E. coli or Baculovirus full-length NS3 was diluted to 3.33 μM with assay buffer; made in house; host or cells: E. coli or baculovirus (BV) system
T1 sequence (P27958 1027-1657): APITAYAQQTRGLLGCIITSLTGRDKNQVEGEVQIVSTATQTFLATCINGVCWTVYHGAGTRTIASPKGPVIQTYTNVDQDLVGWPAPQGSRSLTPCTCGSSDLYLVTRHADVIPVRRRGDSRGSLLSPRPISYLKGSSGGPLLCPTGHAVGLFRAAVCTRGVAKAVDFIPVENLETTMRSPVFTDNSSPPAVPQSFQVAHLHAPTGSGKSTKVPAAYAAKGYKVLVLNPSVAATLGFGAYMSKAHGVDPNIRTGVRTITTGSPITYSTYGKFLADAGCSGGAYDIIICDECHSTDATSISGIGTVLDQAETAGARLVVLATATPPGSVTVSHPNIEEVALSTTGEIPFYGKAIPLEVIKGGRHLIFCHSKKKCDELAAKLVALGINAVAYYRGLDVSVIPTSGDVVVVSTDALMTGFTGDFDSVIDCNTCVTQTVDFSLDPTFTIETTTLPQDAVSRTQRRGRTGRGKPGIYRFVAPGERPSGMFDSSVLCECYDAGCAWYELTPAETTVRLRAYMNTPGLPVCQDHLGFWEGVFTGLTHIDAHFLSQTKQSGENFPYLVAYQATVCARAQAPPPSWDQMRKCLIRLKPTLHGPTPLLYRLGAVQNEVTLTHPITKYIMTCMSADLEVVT
In short: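 Full-length NS3 (E. coli or baculovirus) precomplexed with excess NS4A-2 peptide, run at 2 nM (E. coli) or 3 nM (BV) NS3; compounds pre-incubated 10 min at room temperature before RETS1 substrate. Fluorescence (ex 335/em 495 nm) read kinetically 30 min; IC50 from four-parameter fit, converted to Ki via Ki=IC50/(1+[S]/Km).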

Compound	EC50 [1] [nM]	IC50 (NS3-NS4A protease) [nM]	IC50 (NS3-NS4A protease; read-out: NS3-NS4A IC50) [nM]
O=C(N[C@H](C(=O)N[C@H]1CCCCC/C=C\[C@@H]2C[C@@]2(C(=O)NS(=O)(=O)C2CC2)NC(=O)[C@@H]2C[C@@H](OC(=O)N3Cc4cccc(F)c4C3)CN2C1=O)C1CCCCC1)c1cnccn1 [AR00340303, (1S,4R,6S,14S,18R)-4-Fluoro-1,3-dihydro-isoindole-2-carboxylic acid 14-{2-cyclohexyl-2-[(pyrazine-2-carbonyl)-amino]-acetylamino}-4-cyclopropanesulfonylaminocarbonyl-2,15-dioxo-3,16-diaza-tricyclo[14.3.0.0^4,6]nonadec-7-en-18-yl ester]	< 1000	< 100	–
CC(C)(C)OC(=O)N[C@H]1CCCCC/C=C\[C@@H]2C[C@@]2(C(=O)NS(=O)(=O)C2CC2)NC(=O)[C@@H]2C[C@@H](NC(=S)N3CCc4ccccc4C3)CN2C1=O [AR00304012, (1S,4R,6S,14S,18R)-{4-Cyclopropanesulfonylaminocarbonyl-18-[(3,4-dihydro-1H-isoquinoline-2-carbothioyl)-amino]-2,15-dioxo-3,16-diaza-tricyclo[14.3.0.0^4,6]nonadec-7-en-14-yl}-carbamic acid tert-butyl ester]	< 1000	–	< 100
CC(C)(C)OC(=O)N[C@H]1CCCCC/C=C\[C@@H]2C[C@@]2(C(=O)O)NC(=O)[C@@H]2C[C@@H](OC(=O)N3Cc4cccc(F)c4C3)CN2C1=O [AR00365369, (1S,4R,6S,14S,18R)-14-tert-Butoxycarbonylamino-18-(4-fluoro-1,3-dihydro-isoindole-2-carbonyloxy)-2,15-dioxo-3,16-diaza-tricyclo[14.3.0.0^4,6]nonadec-7-ene-4-carboxylic acid]	< 1000	–	< 100
CC(C)(C)OC(=O)N[C@H]1CCCCC/C=C\[C@@H]2C[C@@]2(C(=O)O)NC(=O)[C@@H]2C[C@@H](OC(=O)N3CCc4ccccc43)CN2C1=O [AR00291875, (1S,4R,6S,14S,18R)-14-tert-Butoxycarbonylamino-18-(2,3-dihydro-indole-1-carbonyloxy)-2,15-dioxo-3,16-diaza-tricyclo[14.3.0.0^4,6]nonadec-7-ene-4-carboxylic acid]	< 10000	–	< 1000
CC(C)(C)OC(=O)N[C@H]1CCCCC/C=C\[C@@H]2C[C@@]2(C(=O)NS(=O)(=O)C2CC2)NC(=O)[C@@H]2C[C@@H](OC(=O)N3CCc4cccc(C(F)(F)F)c4C3)CN2C1=O [AR00298997, (1S,4R,6S,14S,18R)-8-Trifluoromethyl-3,4-dihydro-1H-isoquinoline-2-carboxylic acid 14-tert-butoxycarbonylamino-4-cyclopropanesulfonylaminocarbonyl-2,15-dioxo-3,16-diaza-tricyclo[14.3.0.0^4,6]nonadec-7-en-18-yl ester]	< 100	–	< 100
CC(C)S(=O)(=O)NC(=O)[C@@]12C[C@H]1/C=C\CCCCC[C@H](NC(=O)OC(C)(C)C)C(=O)N1C[C@H](OC(=O)N3Cc4ccccc4C3)C[C@H]1C(=O)N2 [AR00333801, (1S,4R,6S,14S,18R)-1,3-Dihydro-isoindole-2-carboxylic acid 14-tert-butoxycarbonylamino-2,15-dioxo-4-(propane-2-sulfonylaminocarbonyl)-3,16-diaza-tricyclo[14.3.0.0^4,6]nonadec-7-en-18-yl ester]	< 100	–	< 100
O=C(NC1CCCC1)N[C@H]1CCCCC/C=C\[C@@H]2C[C@@]2(C(=O)O)NC(=O)[C@@H]2C[C@@H](OC(=O)N3CCc4c(F)cccc4C3)CN2C1=O [AR00304077, (1S,4R,6S,14S,18R)-14-(3-Cyclopentyl-ureido)-18-(5-fluoro-3,4-dihydro-1H-isoquinoline-2-carbonyloxy)-2,15-dioxo-3,16-diaza-tricyclo[14.3.0.0^4,6]nonadec-7-ene-4-carboxylic acid]	< 10000	–	< 100
